Residues, ends and D or L forms follow the SMILES beside them.
Columns and labels:
[1] = target: T1, Angiotensin-converting enzyme (Sus scrofa, UniProt F1RRW5); experiment: (§1) Inhibition of porcine angiotensin converting enzyme assessed as release of hippuric acid using hippuryl-histidyl-leucine as substrate measured after 30 mins by spectrophotometry analysis
T1 sequence (F1RRW5 whole entry): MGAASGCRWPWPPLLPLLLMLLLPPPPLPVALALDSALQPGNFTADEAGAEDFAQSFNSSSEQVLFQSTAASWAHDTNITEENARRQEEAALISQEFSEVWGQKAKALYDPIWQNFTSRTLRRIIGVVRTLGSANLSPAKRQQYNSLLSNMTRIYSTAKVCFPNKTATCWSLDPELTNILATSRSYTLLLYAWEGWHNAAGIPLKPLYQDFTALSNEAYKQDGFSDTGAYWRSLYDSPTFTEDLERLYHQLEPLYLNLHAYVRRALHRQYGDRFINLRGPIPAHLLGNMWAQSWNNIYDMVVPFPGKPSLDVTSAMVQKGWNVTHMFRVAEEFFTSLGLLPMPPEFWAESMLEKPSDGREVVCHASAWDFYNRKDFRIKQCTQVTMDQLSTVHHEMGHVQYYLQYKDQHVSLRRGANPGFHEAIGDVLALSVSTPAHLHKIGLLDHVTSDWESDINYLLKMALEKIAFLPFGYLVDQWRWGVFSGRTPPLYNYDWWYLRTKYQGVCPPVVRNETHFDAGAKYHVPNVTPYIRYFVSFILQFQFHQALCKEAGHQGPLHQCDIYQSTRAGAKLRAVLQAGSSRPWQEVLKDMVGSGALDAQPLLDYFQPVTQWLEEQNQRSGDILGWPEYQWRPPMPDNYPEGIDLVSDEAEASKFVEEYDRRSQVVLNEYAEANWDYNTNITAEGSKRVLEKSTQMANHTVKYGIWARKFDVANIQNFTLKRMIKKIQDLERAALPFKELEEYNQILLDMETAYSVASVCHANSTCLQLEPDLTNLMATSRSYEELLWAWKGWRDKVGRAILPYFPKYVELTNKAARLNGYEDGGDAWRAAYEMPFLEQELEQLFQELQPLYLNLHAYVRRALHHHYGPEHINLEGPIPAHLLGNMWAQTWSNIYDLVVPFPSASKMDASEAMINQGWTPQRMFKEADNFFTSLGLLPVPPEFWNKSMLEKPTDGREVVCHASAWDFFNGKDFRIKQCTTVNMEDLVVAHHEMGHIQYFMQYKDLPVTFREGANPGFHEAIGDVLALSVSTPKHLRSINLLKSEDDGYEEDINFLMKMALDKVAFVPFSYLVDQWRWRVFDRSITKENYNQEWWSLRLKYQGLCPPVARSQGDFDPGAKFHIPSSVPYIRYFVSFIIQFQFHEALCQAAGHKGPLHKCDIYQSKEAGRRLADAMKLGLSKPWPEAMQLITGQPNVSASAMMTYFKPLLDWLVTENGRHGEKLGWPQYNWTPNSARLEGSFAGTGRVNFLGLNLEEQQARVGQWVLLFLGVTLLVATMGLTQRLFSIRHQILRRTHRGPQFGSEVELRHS

[2] = target: T2, Angiotensin-converting enzyme (Sus scrofa) (UniProt F1RRW5); experiment: as §1
T2 sequence (whole entry): T1 sequence (F1RRW5 whole entry)

[3] = target: Dipeptidyl peptidase 4 (Homo sapiens, UniProt P27487); experiment: Inhibition of recombinant human DPP4 using H-Gly-Pro conjugated amino methyl coumarin as substrate by fluorometric assay
Chain of Dipeptidyl peptidase 4 (P27487 whole entry): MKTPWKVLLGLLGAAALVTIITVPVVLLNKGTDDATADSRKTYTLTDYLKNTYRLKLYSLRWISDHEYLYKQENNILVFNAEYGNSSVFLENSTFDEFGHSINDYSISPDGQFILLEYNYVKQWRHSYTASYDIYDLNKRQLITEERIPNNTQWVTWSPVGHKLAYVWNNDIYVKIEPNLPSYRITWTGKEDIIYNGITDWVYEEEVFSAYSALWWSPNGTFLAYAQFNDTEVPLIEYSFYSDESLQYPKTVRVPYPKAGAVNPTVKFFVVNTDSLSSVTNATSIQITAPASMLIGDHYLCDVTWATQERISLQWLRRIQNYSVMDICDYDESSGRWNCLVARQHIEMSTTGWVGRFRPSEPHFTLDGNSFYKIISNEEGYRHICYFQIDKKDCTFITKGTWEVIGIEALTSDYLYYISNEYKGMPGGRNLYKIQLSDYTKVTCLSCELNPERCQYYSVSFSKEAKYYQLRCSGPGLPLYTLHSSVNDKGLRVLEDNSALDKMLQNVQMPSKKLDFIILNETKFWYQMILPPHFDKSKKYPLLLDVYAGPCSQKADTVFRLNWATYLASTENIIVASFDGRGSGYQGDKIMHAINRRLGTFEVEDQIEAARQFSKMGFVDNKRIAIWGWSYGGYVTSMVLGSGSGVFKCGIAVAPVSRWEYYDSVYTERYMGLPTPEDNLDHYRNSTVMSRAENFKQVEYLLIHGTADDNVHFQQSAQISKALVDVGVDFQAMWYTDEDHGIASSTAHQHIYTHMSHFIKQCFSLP

IC50 [1]	inhibition [2]	IC50 [3]	SMILES
74.3 µM	Dose-dependent effect	3830 µM	CC[C@H](C)[C@H](NC(=O)[C@H](CC(C)C)NC(=O)[C@@H]1CCCN1C(=O)[C@H](CC(C)C)NC(=O)[C@@H]1CCCN1C(=O)[C@@H](NC(=O)CN)[C@@H](C)CC)C(=O)O (H-GIPLPLI-OH)
300 µM			CC[C@H](C)[C@H](N)C(=O)N[C@@H](CCC(N)=O)C(=O)N[C@@H](CCCCN)C(=O)N[C@H](C(=O)N[C@@H](C)C(=O)NCC(=O)N[C@H](C(=O)N[C@@H](Cc1c[nH]c2ccccc12)C(=O)O)[C@@H](C)O)C(C)C (H-IQKVAGTW-OH)

Source: ChEMBL document CHEMBL4364304, “Discovery, synthesis, and in vitro evaluation of a novel bioactive peptide for ACE and DPP-IV inhibitory activity” (Eur J Med Chem, 2019)
